Data reported in ChEMBL document CHEMBL3877336, “Structure-Based Design of ASK1 Inhibitors as Potential Agents for Heart Failure” (ACS Med Chem Lett, 2017).

Assays:
[1] = target: T1, Mitogen-activated protein kinase kinase kinase 5 (Homo sapiens, UniProt Q99683); experiment: Inhibition of recombinant human N-terminal GST-tagged ASK1 catalytic domain (654 to 971 residues) expressed in baculovirus infected sf21 cells using STK3 as substrate after 60 mins by HTRF assay
T1 sequence (Q99683 whole entry): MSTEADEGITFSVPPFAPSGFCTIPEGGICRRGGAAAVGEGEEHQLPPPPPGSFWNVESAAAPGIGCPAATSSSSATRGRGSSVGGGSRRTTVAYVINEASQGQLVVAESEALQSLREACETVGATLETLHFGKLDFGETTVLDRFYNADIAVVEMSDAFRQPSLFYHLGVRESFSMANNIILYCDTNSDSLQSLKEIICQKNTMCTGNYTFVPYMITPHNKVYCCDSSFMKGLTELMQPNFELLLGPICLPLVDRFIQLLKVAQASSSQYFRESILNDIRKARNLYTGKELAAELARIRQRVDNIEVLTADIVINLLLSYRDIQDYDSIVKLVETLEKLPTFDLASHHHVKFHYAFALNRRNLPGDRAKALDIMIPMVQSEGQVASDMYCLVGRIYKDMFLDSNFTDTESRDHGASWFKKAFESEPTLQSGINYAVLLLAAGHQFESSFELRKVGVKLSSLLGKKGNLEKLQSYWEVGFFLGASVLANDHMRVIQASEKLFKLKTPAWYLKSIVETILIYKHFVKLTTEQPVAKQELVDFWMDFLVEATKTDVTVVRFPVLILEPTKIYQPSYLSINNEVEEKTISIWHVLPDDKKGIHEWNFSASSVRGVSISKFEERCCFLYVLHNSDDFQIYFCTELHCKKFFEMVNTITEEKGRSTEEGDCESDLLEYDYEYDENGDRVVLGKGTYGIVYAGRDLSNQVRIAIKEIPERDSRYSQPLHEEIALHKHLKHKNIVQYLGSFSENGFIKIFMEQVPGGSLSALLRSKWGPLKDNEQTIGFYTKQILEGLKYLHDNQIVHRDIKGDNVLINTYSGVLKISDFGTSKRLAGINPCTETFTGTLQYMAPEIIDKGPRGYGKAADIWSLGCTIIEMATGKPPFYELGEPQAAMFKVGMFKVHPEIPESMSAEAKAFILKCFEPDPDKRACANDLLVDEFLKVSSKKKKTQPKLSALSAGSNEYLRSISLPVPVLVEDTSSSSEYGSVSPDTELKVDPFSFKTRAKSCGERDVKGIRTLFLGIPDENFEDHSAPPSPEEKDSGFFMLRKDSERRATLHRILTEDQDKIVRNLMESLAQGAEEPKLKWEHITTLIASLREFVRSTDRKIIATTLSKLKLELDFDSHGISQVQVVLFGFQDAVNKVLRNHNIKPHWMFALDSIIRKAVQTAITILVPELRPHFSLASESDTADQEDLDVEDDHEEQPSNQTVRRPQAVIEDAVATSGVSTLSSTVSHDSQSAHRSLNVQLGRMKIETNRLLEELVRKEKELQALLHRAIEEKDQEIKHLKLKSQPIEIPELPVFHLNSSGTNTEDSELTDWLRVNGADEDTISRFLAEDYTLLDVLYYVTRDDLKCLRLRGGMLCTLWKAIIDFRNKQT

[2] = target: T1, Mitogen-activated protein kinase kinase kinase 5; experiment: Inhibition of human ASK1 expressed in HEK293 cells assessed as inhibition of H2O2-induced JNK phosphorylation preincubated for 30 mins followed by H2O2 addition measured after 30 mins by ELISA; format: cell-based
[3] = Intrinsic clearance in human liver microsomes at 1 uM up to 30 mins in presence of NADPH by UPLC-MS/MS analysis; format: ADME; details: read-out: CLH
[4] = Intrinsic clearance in rat liver microsomes at 1 uM up to 30 mins in presence of NADPH by UPLC-MS/MS analysis; format: ADME; details: read-out: CLH
MDR1 (human) [5] = experiment: Apparent permeability from apical to basolateral side in pig LLC-PK1 cells expressing human MDR1 at 10 uM after 2 hrs by LC-MS/MS analysis; format: ADME, cell-based, Sus scrofa
MDR1 (human) [6] = experiment: Apparent permeability from basolateral to apical side in pig LLC-PK1 cells expressing human MDR1 at 10 uM after 2 hrs by LC-MS/MS analysis; format: ADME, cell-based, Sus scrofa
[7] = Solubility of the compound in pH 1 solution at 155 uM after overnight incubation by HPLC method; format: physicochemical; details: buffer, pH 1, 155 µM
Rattus norvegicus [8] = experiment: Anti-ischemic activity in Langendorff perfused Sprague-Dawley rat heart assessed as reduction in infarct size at 2.25 mg/kg, po administered via gavage administered 1 hr prior to ischemia/reperfusion relative to control; format: functional; parameters: scale not given: the % may be the effect or the level left
Rattus norvegicus [9] = experiment: Anti-ischemic activity in Langendorff perfused Sprague-Dawley rat heart assessed as reduction in infarct size at 2.25 mg/kg, po administered via gavage 8 hrs prior to ischemia/reperfusion relative to control; format: functional; parameters: scale not given: the % may be the effect or the level left

SMILES | IC50 [1] | EC50 [2] | further results
CC[C@@H](C)n1cnnc1-c1cccc(N2Cc3ccccc3C2=O)n1 | 0.0501 µM | – | –
Cc1ccc(C(=O)Nc2cccc(-c3nncn3C(C)C)n2)c(F)c1 | 0.0501 µM | – | –
CC(CF)n1cnnc1-c1cccc(N2Cc3ccccc3C2=O)n1 (stereo not drawn) | 0.0126 µM | – | –
CC(CC#N)n1cnnc1-c1cccc(N2Cc3ccccc3C2=O)n1 (stereo not drawn) | 0.02 µM | – | –
C[C@@H](CO)n1cnnc1-c1cccc(N2Cc3ccccc3C2=O)n1 | 0.0316 µM | – | –
CC(C)Oc1ccc2c(c1)C(=O)N(c1cccc(-c3nncn3C(C)C)n1)C2 | 0.0158 µM | 0.0316 µM | –
CC[C@H](C)n1cnnc1-c1cccc(N2Cc3ccccc3C2=O)n1 | 0.02 µM | – | –
CC(C)n1cnnc1-c1cccc(N2Cc3ccc(OC[C@@H]4CN(C)CCO4)cc3C2=O)n1 | 0.00631 µM | 0.00631 µM | –
CC(C)n1cnnc1-c1cccc(N2Cc3ccccc3C2=O)n1 | 0.0126 µM | – | –
CC(CCO)n1cnnc1-c1cccc(N2Cc3ccccc3C2=O)n1 (stereo not drawn) | 0.0398 µM | – | –
CC(C)Oc1ccc2c(c1)C(=O)N(c1cccc(-c3nncn3[C@H](C)CO)n1)C2 | 0.00501 µM | 0.00631 µM | CLint scaled at 1 µM [3]: < 8.3 mL/min/kg; CLint scaled at 1 µM [4]: < 16.6 mL/min/kg; Papp A→B at 2 h, 10 µM (MDR1 (human) [5]): 5.49 ×10⁻⁶ cm/s; Papp B→A at 2 h, 10 µM (MDR1 (human) [6]): 26.2 ×10⁻⁶ cm/s; solubility [7]: Soluble; Activity (Rattus norvegicus [8]): 42%; Activity (Rattus norvegicus [9]): 24%
O=C1c2ccccc2CN1c1cccc(-c2nncn2CC2CCO2)n1 (stereo not drawn) | 0.794 µM | – | –
C[C@H](CO)n1cnnc1-c1cccc(N2Cc3ccccc3C2=O)n1 | 0.01 µM | – | –
COCCOc1ccc2c(c1)C(=O)N(c1cccc(-c3nncn3C(C)C)n1)C2 | 0.00794 µM | 0.0158 µM | –
COCCOc1ccc2c(c1)C(=O)N(c1cccc(-c3nncn3[C@H](C)CO)n1)C2 | 0.00794 µM | 0.0126 µM | –
Cc1cc(F)c(C(=O)Nc2ccccn2)cc1-n1cnc(C2CC2)c1 | 6.31 µM | – | –
